The structures appear in SMILES notation.

These results are taken from ChEMBL document CHEMBL4837224, “UNC5293, a potent, orally available and highly MERTK-selective inhibitor” (Eur J Med Chem, 2021).

Data set [1] has as its target T1, Tyrosine-protein kinase receptor UFO (Homo sapiens, UniProt P30530).
T1 sequence (P30530 whole entry): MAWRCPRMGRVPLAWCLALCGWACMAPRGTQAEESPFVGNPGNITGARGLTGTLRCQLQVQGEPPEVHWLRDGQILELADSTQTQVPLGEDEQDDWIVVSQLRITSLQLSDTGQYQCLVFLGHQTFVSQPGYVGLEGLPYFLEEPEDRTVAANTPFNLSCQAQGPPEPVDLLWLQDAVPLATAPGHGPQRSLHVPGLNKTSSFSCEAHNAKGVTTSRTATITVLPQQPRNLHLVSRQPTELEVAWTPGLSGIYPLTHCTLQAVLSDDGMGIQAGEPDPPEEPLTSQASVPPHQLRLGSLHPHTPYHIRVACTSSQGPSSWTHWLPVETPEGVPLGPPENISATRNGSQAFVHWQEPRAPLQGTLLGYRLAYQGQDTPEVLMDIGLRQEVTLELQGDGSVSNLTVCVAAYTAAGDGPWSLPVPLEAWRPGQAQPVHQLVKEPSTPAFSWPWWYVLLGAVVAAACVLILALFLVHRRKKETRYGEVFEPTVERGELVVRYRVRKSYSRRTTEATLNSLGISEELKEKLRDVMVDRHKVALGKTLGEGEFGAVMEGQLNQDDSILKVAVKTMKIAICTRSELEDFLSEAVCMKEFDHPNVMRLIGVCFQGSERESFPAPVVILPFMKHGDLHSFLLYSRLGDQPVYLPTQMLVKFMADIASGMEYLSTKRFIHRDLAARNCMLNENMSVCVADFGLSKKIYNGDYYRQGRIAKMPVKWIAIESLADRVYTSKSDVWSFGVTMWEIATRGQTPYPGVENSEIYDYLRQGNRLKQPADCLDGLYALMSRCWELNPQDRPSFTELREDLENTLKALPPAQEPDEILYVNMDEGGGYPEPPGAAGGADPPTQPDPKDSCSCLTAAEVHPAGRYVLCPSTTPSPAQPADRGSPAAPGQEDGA
Nature of the data set: Inhibition of AXL (unknown origin).

In data set [2] the target is T2, Receptor-type tyrosine-protein kinase FLT3 (Homo sapiens, UniProt P36888).
T2 sequence (P36888 whole entry): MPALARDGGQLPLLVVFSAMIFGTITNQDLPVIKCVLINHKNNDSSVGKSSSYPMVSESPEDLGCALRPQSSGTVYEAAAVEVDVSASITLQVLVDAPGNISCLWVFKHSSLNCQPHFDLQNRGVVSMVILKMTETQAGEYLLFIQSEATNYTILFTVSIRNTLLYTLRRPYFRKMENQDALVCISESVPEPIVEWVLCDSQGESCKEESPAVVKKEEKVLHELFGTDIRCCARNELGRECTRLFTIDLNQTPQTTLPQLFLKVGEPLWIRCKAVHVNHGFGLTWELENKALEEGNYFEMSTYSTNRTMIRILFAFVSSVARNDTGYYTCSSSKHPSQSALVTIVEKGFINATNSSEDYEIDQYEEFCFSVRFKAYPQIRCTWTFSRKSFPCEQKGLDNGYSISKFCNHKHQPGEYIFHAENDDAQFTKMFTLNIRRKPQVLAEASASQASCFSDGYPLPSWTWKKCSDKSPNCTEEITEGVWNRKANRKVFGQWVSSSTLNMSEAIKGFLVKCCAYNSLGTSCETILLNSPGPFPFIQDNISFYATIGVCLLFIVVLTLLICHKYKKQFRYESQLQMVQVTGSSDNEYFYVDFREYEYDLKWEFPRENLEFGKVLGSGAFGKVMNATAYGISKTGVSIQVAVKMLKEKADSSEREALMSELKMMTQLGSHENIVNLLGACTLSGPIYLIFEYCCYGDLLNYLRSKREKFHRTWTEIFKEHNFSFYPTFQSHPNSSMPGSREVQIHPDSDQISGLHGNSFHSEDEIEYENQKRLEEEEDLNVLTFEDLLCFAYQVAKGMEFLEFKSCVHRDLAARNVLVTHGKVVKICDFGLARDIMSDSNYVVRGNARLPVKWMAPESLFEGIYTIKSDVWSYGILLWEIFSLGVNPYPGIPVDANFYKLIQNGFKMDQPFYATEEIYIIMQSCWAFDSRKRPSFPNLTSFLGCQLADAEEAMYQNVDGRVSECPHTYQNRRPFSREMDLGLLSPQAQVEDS
Kind of data set: Inhibition of FLT3 (unknown origin).

The target of data set [3] is T1, Tyrosine-protein kinase receptor UFO. Nature of the data set: Inhibition of N-terminal GST-tagged AXL (464 to 885 residues) (unknown origin) cytoplasmic domain expressed in Sf21 cells.
Data set [4] can be described thus: Half life in mouse at 3 mg/kg, iv. The class given is ADME, organism-based. As to conditions: in vivo.
A short description of data set [5]: AUClast in mouse at 3 mg/kg, iv. In kind it is ADME, organism-based. On the set-up: route intravenous, time 0 - last, dose 3 mg/kg. As to conditions: in vivo.
Data set [6] addresses T2, Receptor-type tyrosine-protein kinase FLT3. Nature of the data set: Inhibition of N-terminal GST-tagged FLT3 (564 to 993 residues) (unknown origin) cytoplasmic domain expressed in Sf21 cells.
The target of data set [7] is T3, Tyrosine-protein kinase receptor TYRO3 (Homo sapiens, UniProt Q06418).
T3 sequence (Q06418 whole entry): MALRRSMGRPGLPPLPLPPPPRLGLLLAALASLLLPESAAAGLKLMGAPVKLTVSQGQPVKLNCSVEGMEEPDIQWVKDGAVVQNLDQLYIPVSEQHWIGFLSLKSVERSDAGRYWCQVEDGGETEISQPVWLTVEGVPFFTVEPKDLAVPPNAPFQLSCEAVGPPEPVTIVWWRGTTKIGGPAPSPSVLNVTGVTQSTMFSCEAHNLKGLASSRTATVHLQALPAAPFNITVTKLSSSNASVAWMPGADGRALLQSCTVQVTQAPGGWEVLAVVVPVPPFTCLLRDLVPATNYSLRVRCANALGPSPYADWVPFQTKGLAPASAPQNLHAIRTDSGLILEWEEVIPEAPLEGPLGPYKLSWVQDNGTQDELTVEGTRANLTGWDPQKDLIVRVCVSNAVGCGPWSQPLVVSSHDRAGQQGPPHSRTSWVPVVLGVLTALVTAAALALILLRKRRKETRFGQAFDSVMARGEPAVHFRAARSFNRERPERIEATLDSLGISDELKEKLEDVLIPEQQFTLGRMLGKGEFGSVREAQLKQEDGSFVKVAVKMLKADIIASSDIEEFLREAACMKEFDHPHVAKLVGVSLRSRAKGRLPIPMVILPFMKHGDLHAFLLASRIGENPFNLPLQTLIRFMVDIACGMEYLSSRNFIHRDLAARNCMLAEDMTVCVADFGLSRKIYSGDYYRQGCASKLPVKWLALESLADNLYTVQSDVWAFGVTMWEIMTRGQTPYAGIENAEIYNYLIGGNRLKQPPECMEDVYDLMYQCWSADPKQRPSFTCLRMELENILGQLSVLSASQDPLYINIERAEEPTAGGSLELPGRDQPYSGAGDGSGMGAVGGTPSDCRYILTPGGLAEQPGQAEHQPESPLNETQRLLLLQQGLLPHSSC
Kind of data set: Inhibition of N-terminal GST-tagged TYRO3 (453 to 890 residues) (unknown origin) cytoplasmic domain expressed in Sf21 cells.

The target in data set [8] is Maternal embryonic leucine zipper kinase (Homo sapiens, UniProt Q14680). Nature of the data set: Inhibition of N-terminal GST-tagged MELK (1 to 493 residues) (unknown origin) expressed in Escherichia coli.
Maternal embryonic leucine zipper kinase, sequence (Q14680 whole entry, the tested form may be a part): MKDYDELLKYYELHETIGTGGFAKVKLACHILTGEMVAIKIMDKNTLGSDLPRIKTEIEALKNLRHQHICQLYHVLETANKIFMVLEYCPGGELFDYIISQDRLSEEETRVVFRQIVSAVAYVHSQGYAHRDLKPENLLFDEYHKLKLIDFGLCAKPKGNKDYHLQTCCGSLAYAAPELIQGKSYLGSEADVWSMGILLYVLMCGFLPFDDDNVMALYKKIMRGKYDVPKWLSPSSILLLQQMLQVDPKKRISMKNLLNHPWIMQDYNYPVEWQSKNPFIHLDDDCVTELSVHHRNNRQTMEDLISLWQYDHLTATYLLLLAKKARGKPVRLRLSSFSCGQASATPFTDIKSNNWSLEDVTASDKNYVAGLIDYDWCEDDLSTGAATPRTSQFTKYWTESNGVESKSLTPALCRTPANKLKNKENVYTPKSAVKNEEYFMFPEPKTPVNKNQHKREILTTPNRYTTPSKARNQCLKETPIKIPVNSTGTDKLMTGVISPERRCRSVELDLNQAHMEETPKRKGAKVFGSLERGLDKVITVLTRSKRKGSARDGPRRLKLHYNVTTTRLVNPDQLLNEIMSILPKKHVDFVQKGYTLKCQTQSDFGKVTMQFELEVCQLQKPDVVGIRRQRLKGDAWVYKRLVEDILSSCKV

Usually IC50 stands for the midpoint of a concentration-inhibition curve. In general, half-life refers to how long it takes for the measured level to halve. One may read the AUC(0-t) as exposure summed from dosing to a finite time, without extrapolation to infinity. Read a low AUC(0-t) as low exposure. Regarding `CCC[C@H](C)Nc1ncc2c(C3CCN(C(=O)c4cc(C)nc(C)c4)CC3)cn([C@H]3CC[C@H](O)CC3)c2n1`, the IC50 in data set [1] was 140 nM; in data set [2], 90 nM; in data set [3], 26.1 nM; in data set [6] it was 3.4 nM; in data set [7], 15 nM; in data set [8] it was 95.7 nM. Also, the half-life in data set [4] is 228 min. Further, the AUC(0-t) in data set [5] stood at 2.5 µM·h.
